Source: publication PMC3089437 (2011)

Molecular target: mouse CB2 (mCB2) (Mus musculus, UniProt P47936)
Format: binding

Sequence of mouse CB2 (mCB2) (P47936 whole entry): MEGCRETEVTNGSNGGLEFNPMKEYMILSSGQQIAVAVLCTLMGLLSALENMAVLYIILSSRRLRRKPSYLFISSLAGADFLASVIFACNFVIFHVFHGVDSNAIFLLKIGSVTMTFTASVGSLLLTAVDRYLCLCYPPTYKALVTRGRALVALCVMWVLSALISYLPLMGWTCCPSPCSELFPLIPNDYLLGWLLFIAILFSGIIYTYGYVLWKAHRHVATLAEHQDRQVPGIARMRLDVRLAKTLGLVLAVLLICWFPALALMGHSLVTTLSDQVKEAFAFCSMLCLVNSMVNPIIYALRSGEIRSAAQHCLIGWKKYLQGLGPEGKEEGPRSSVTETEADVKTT

## CCCCCCC(C)(C)c1cc(O)c2c(c1)oc(=O)c1ccc(OC)cc12 [AM1710, 3-(1′,1′-dimethylheptyl)-1-hydroxy-9-methoxy-6H-benzo[c]chromene-6-one]
  Ki: 17 nM
